Here are results for one molecule from patent EP3727588B1, “ACTIVATOR PEPTIDES OF THE ENZYME ADAM 10 AND RELATED USES IN THE TREATMENT OF ALZHEIMER'S DISEASE” (UNIVERSITA' DEGLI STUDI DI MILANO, priority 2017, dated 2019).

A short description of data set [1]: body weight and food intake during 14 days' treatment. The following applies: C57BL/6 mice, daily intraperitoneal 3 nmol/g. It counts as in vivo. As for the experimental part:
(§1) C57/BL6 adult mice were treated for 14 days with daily intraperitoneal injection of saline solution or peptides at a dose of 3 nmol/g (6-10 animals per experimental group). The animals were maintained in an enclosure at 25 ± 2 °C with an alternating light/dark cycle of 12 hours and had free access to water and food in the form of pellets (standard diet).
For the entire duration of the treatment, on a daily basis, the weight and food intake of each animal were monitored and recorded, in order to evaluate any changes caused by the treatment. 24 hours after the last injection the mice were anaesthetized, and then the blood was taken through cardiac puncture, whereas the brain and liver of the animal were rapidly dissected to perform biochemical or immunohistological analyses.
The body weight and food intake were monitored and recorded on a daily basis.

The test system of data set [2] is dendritic spines of the hippocampal neurons. Briefly: dendritic spine morphology and density in hippocampus, C57BL/6 mice. The conditions noted are these: 14 days' treatment. It counts as in vivo. As for the experimental part: as §1
For the dendritic spine analysis, the protocol used is the one previously described by Kim et al, and envisages the use of DilDye lipophilic tracer (Invitrogen) to allow the dendritic spines to be viewed under the confocal microscope. The analysis of the dimensions and morphology of the spines was performed with ImageJ software.
The spines were classified, based on their morphology, into three different categories: thin, stubby (without a well-defined "neck") and mushroom shaped. To evaluate the possible effect induced by PEP3 on the spine morphology, two animals for each experimental group were perfused after 14 days of treatment and the brain was post-fixed in PFA and cut with a vibratome. To view the dendritic spines the lipophilic tracer DilDye was used. From the images acquired from the confocal microscope the number, length and width of the head of the dendritic spines of the hippocampal neurons were measured.

Data set [3] deals with T1, ADAM10/AP2 complex (Rattus norvegicus).
T1 construct: endogenous in cells; host or cells: primary hippocampal neurons of rat embryos, DIV14
Briefly: co-immunoprecipitation of ADAM10 with AP2 (α-adaptin) in acute hippocampal slices. It counts as cell-based. The following applies: 10 µM, 30 min. As for the experimental part:
(§2) The acute hippocampal slices were obtained from rat brain. After carefully removing the meninges, the hippocampus was isolated and dissected using the McIlwain tissue chopper. The hippocampal slices were then transferred into supports containing Krebs buffer, in the presence of a constant flow of 95% O2 and 5% CO2 5% (v/v). The acute slices were kept for 45 min at ambient temperature before proceeding with treatment with the peptide.
(§3) For the treatments of the acute hippocampal slices, all the peptides were diluted in Krebs buffer at a concentration of 10µM. The treatments were performed for 30 minutes and subsequently the sample was immediately frozen.
(§4) For the co-immunoprecipitation experiments, aliquots of 40-100 µg of lysate were incubated at 4°C in RIA 1X buffer (NaCl 200 mM, EDTA 10 mM, Na2HPO4 10 mM, Nonidet P-40, 0.5% and 0.1% SDS) in a final volume of 150 µl with 1-2 µg of antibody. The following day the protein complex A/G (Santa Cruz Biotechnology) was added, conjugated with agarose marbles, and the incubation was continued for 2 hours. After three washes with RIA buffer the samples were loaded onto SDS-PAGE and analysed through Western Blot.
(§5) The quantization of the Western Blot analyses was performed through an image analysis program (ImageLab -BioRad). The levels of proteins were expressed as optical density (OD) related to the different measurements and were normalized on respective tubulin levels.
(§6) The samples were then processed, and the total homogenate was used to evaluate the interaction levels between ADAM10 and the complex AP2. The co-immunoprecipitation experiment (co-IP), performed using an anti-ADAM10 antibody, made it possible to verify that two of the three peptides (PEP2 (SEQ ID NO:2) and PEP3 (SEQ ID NO:1)) were able to interfere with the interaction between ADAM10 and α-adaptin, one of the subunits that constitutes the complex AP2 (Figure 1A).

The next data set deals with T2, ADAM10/AP2 complex (Rattus norvegicus, UniProt P62944).
T2 construct: endogenous in cells; host or cells: primary hippocampal neurons of rat embryos, DIV14
Described as above. The class given is cell-based. The following applies: 10 µM, 30 minutes. As for the experimental part: as §2, §3, §4, §5, §6

Data set [4] in a line: blood-brain barrier crossing, anti-TAT immunohistochemistry on coronal brain sections. The following applies: C57BL/6 mice, intraperitoneal injection 3 nmoles/g, 24 hours. It counts as in vivo. As for the experimental part: For the immunohistochemistry analyses, mice treated with the peptide were anaesthetized deeply and subjected to transcardial perfusion with 4% paraformaldehyde (prepared in PBS, pH 7.2-7.4), through the use of a peristaltic pump. The fixing liquid was inserted into the blood circulation through the left ventricle and after 10 minutes the brain was isolated. The sample was then post-fixed for 1 hour and 30 minutes at 4°C, then washed with PBS 1X and placed o/n in a 30% sucrose solution. The following day the sample was washed again with PBS 1X cut with the vibratome obtaining coronal sections of 50µm. Then the sections were stained through free-floating immunofluorescence technique. The fluorescence images were acquired using the Zeiss Confocal LSM510 Meta system with 63x objective at a resolution of 1024x1024 pixels. […]
The coronal sections were incubated with a specific antibody for the identification of the MAP2 neurons, and an antibody able to recognize the TAT sequence of HIV-1 present in the CPPs. As shown by the arrows in Figure 6, the presence of a specific signal of the anti-TAT antibody can be identified, which can only be detected in the coronal sections of brain of animals treated with CPPs. […] In the brain of animals only treated with saline solution (Figure 6, panel A), such signal cannot be detected.

Data set [5] has as its system GFAP and Iba-1 positive cells. Briefly: neuro-inflammation: GFAP and Iba-1 positive cells in hippocampus. It counts as in vivo, mice. The conditions noted are these: 5 fields, 14 days' treatment. As for the experimental part:
as §1
After the sacrifice of the treated animal, a portion of liver and a brain hemisphere were fixed in 10% formalin for 48 hours, and included in paraffin. From each block of paraffin, serial sections 5/6µm thick were obtained. The sections were then stained with haematoxylin-eosin or processed through immunohistochemistry.
Subsequently, to evaluate the presence of neuro-inflammation, 5 different fields of the hippocampus were considered to verify any presence of GFAP and Iba-1 positive cells.

SMILES strings stand for the structures. Peptide text beside a SMILES is read from it.

T2 sequence (P18484 whole entry): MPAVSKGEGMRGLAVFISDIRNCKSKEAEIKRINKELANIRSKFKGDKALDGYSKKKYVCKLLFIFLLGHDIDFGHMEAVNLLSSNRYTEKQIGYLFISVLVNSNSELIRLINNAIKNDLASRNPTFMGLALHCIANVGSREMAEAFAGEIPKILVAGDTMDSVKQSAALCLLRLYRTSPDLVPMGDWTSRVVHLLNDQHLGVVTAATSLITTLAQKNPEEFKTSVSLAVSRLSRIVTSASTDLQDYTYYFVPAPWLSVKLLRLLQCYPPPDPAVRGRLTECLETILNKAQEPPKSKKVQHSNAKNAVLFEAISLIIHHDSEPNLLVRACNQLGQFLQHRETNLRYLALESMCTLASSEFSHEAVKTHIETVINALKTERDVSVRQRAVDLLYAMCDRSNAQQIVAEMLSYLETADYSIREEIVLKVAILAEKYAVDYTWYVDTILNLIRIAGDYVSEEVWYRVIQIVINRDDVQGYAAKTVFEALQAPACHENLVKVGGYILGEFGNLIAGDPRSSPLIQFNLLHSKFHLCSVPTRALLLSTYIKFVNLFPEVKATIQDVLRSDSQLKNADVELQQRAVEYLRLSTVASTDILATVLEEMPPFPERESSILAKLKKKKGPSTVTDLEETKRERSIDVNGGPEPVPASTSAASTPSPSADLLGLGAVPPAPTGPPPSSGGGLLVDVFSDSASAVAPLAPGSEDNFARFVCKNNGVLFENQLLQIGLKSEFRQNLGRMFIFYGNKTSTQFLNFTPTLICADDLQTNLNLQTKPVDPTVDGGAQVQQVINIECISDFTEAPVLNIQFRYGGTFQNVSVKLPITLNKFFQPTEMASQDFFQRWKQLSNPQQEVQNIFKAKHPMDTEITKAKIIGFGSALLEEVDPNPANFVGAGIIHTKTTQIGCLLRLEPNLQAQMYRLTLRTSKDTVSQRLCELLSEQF
T2 sequence (P62744 whole entry, further chain): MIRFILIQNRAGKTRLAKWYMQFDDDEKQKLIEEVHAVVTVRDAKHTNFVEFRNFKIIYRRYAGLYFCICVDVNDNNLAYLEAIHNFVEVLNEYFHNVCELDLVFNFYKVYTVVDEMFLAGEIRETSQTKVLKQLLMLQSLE
T2 sequence (P84092 whole entry, further chain): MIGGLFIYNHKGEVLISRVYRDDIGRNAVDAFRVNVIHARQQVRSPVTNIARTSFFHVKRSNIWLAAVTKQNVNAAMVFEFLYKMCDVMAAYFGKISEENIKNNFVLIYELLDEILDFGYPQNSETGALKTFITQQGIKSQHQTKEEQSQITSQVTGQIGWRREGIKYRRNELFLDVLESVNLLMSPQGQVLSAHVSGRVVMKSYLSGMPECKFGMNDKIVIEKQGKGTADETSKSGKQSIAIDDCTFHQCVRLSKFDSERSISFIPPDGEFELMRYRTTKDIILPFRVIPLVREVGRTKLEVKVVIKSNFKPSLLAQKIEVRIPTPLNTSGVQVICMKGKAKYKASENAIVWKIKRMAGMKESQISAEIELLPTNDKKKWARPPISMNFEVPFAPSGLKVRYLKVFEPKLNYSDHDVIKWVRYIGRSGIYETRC
T2 sequence (P62944 whole entry): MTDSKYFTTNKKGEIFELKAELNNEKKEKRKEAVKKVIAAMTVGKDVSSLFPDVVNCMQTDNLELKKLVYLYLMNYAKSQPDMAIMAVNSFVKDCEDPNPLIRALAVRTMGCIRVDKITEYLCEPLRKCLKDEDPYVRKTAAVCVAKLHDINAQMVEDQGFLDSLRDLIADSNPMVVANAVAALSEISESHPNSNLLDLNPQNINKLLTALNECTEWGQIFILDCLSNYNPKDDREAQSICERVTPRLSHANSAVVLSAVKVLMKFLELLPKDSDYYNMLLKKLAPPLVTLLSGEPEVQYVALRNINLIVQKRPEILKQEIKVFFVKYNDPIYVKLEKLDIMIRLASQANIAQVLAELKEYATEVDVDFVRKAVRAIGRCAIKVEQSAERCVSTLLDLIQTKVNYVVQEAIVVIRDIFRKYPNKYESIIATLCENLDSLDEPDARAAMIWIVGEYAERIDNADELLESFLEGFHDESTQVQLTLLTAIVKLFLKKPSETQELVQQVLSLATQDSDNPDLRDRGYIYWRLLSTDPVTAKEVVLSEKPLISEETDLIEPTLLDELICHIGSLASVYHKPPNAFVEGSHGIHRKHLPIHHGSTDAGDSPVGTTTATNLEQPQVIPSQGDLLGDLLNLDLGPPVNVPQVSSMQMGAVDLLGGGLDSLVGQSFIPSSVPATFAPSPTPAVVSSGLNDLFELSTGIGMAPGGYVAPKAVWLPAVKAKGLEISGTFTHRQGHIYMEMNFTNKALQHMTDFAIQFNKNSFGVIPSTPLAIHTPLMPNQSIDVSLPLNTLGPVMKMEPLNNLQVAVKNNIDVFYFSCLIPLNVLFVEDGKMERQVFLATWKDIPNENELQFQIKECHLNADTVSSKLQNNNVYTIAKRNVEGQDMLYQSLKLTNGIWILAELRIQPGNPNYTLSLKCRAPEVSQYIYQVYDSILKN
T1 sequence (P18484 whole entry): as the sequence (P18484 whole entry) above
T1 sequence (P62744 whole entry, further chain): as the sequence (P62744 whole entry, further chain) above
T1 sequence (P84092 whole entry, further chain): as the sequence (P84092 whole entry, further chain) above
T1 sequence (P62944 whole entry, further chain): as the sequence (P62944 whole entry) above

With `N=C(N)NCCC[C@H](NC(=O)CNC(=O)[C@@H](N)Cc1ccc(O)cc1)C(=O)N[C@@H](CCCCN)C(=O)N[C@@H](CCCCN)C(=O)N[C@@H](CCCNC(=N)N)C(=O)N[C@@H](CCCNC(=N)N)C(=O)N[C@@H](CCC(N)=O)C(=O)N[C@@H](CCCNC(=N)N)C(=O)N[C@@H](CCCNC(=N)N)C(=O)N[C@@H](CCCNC(=N)N)C(=O)NCC(=O)NCC(=O)N[C@@H](CO)C(=O)NCC(=O)N[C@@H](CCC(N)=O)C(=O)N1CCC[C@H]1C(=O)N1CCC[C@H]1C(=O)N[C@@H](CCCNC(=N)N)C(=O)N[C@@H](CCC(N)=O)C(=O)N[C@@H](CCCNC(=N)N)C(=O)N1CCC[C@H]1C(=O)N[C@@H](CCCNC(=N)N)C(=O)NCC(=O)O` [PEP3] (H-YGRKKRRQRRRGGSGQPPRQRPRG-OH), the “food intake (ratio daily food intake / mean body weight)” value in data set [1] was found to be 97.09±2.18%. Moreover, in data set [2], the “density of the dendritic spines” value is given as 10.30±1.11 n. of spines/10µm, the “length of mushroom shaped spines” value turned out to be 0.73±0.02, the “length of the spines” value was determined as 0.75±0.02 µm and the “percentage of mushroom shaped spines” value is reported as 28.83 ± 2.18%. In data set [2], the “percentage of stubby spines” value was 45.25 ± 2.03%, the “percentage of thin spines” value is given as 25.92 ± 1.68% and the “width of the head of spines” value worked out at 0.75±0.01 µm. The “PEP/inPEP ratio of optical density (OD), ADAM10/AP2 complex (α-adaptin)” value in data set [3] came to 37.40 ± 21.76%. Besides, the “reduction of the interaction between ADAM10 and α-adaptin” value on ADAM10/AP2 complex was determined as 62.6%. For the same molecule, the “capacity to cross the blood-brain barrier (BBB)” value in data set [4] was “can cross the BBB and penetrate into the neuron cells”. Moreover, in data set [5], the “number of GFAP positive cells” value was determined as 37.17±3.54 and the “number of Iba-1 positive cells” value is 7.33±1.63.
